We go through two molecules from patent US20250049827A1, “A PHARMACEUTICAL COMPOSITION FOR THE TREATMENT OF OTIC INFECTIONS” (Intervet Inc., priority 2021, published 2025).

Like-named read-outs stand apart in the source and are kept apart here.

Data set [1] concerns gentamicin resistant Pseudomonas aeruginosa. Conditions: MIC studies performed in the US; cited from earlier work.
Data set [2] can be described thus: Pilot ear depletion study: gentamicin concentration in ear wax. The class given is in vivo. How it is done:
An ear depletion study was performed to assess gentamicin concentration in ear wax. It was determined that the gentamicin concentrations detected in the ear wax were high enough to be effective against gentamicin resistant Pseudomonas aeruginosa.

For data set [3] the following is noted: cited from earlier work.

With Gentamicin, in data set [1], the “highest MIC” value was 64 µg/mL. The “Total Gentamicin Concentration (mg/g) [Mean ± STD]” value amounted to 11.51 ± 8.68 mg/g in data set [2] (24 hours post dose, Left ear); 11.96 ± 10.11 mg/g in data set [2] (24 hours post dose, Right ear); 8.15 ± 2.94 mg/g in data set [2] (72 hours post dose, Left ear); 8.66 ± 5.00 mg/g in data set [2] (72 hours post dose, Right ear); 3.78 ± 1.55 mg/g in data set [2] (168 hours post dose, Left ear); 3.97 ± 3.38 mg/g in data set [2] (168 hours post dose, Right ear). The “Total Gentamicin Concentration (mg/g) [Mean ± STD]” value in data set [2] (240 hours post dose, Left ear) is recorded as 1.87 ± 1.49 mg/g; in data set [2] (240 hours post dose, Right ear), 2.29 ± 1.36 mg/g; in data set [2] (336 hours post dose, Left ear), 1.46 ± 2.08 mg/g; in data set [2] (336 hours post dose, Right ear), 2.25 ± 2.44 mg/g.

Take `C[C@@H]1C[C@H]2[C@@H]3CCC4=CC(=O)C=C[C@]4(C)[C@@]3(Cl)[C@@H](O)C[C@]2(C)[C@@]1(OC(=O)c1ccco1)C(=O)CCl` [Mometasone Furoate, 9,21-Dichloro-1 1 (beta), 17-dihydroxy-16 (alpha)-methylpregna-1,4-diene-3,20-dione 17-(2 Furoate)]: the solubility entry is reported as “soluble” in data set [3] (in acetone and chloroform); “slightly soluble” in data set [3] (in methanol, ethanol, and isopropanol); “freely soluble” in data set [3] (in tetrahydro furan); “practically insoluble” in data set [3] (in water).
